Laboratory results as given in US9476099B2 (TRUSTEES OF DARTMOUTH COLLEGE, priority 2012, dated 2016).

Test system: gene promoters in NT2/D1-R1 control and DNMT3B knockdown cells
Experiment: Genome-wide promoter methylation analysis, HumanMethylation27 BeadChip (Table 15)
Type: cell-based, human
Details: sh-3b + 5aza
Experimental: DNA methylation analysis was performed in samples in triplicate using the […] […] assay with the HumanMethylation27 BeadChip ([…]) and the BeadChip was scanned on the BeadArray Reader ([…]), according to the manufacturer's instructions. Raw data was normalized and analyzed with Genome Studio software ([…]). The HumanMethylation27 BeadChip assays 27,578 CpGs covering more than 14,000 genes, mostly from promoter regions. […] Hierarchical clustering was performed as stated above. HumanMethylation27 BeadChip data and gene expression microarray data were submitted to NCBI GEO.

**Q.** Which results are given for `Nc1ncn([C@H]2C[C@H](O)[C@@H](CO)O2)c(=O)n1` [5aza]?
**A.** ABCC1 cg20158248 promoter methylation Mean: 0.458; ACP1 cg27226618 promoter methylation Mean: 0.490; ADCY4 cg16761581 promoter methylation Mean: 0.297; ADRA2A cg26926521 promoter methylation Mean: 0.682; ALDH1A3 cg19224278 promoter methylation Mean: 0.310; ALKBH4 cg07404418 promoter methylation Mean: 0.312; ALX4 cg04549333 promoter methylation Mean: 0.880; ALX4 cg04970352 promoter methylation Mean: 0.645; ALX4 cg19358442 promoter methylation Mean: 0.834; ANKRD13C cg19342782 promoter methylation Mean: 0.372; ANKRD45 cg15883716 promoter methylation Mean: 0.793; APC cg16970232 promoter methylation Mean: 0.269; BLOC1S2 cg26610808 promoter methylation Mean: 0.526; BTBD5 cg00660989 promoter methylation Mean: 0.214; BTNL8 cg24024214 promoter methylation Mean: 0.781; C1QL1 cg13818573 promoter methylation Mean: 0.255; C1orf188 cg15731815 promoter methylation Mean: 0.321; C10orf107 cg16063112 promoter methylation Mean: 0.230; C14orf173 cg24404909 promoter methylation Mean: 0.248; C16orf60 cg17858663 promoter methylation Mean: 0.177; C19orf4 cg07379574 promoter methylation Mean: 0.733; C19orf22 cg18022193 promoter methylation Mean: 0.180; CAMK1G cg27337148 promoter methylation Mean: 0.715; CD58 cg21039631 promoter methylation Mean: 0.325; CDKN2B cg04675937 promoter methylation Mean: 0.167; CDKN2B cg08390209 promoter methylation Mean: 0.150; CDX1 cg15452204 promoter methylation Mean: 0.424; CEACAM4 cg10237469 promoter methylation Mean: 0.430; CEACAM7 cg19623751 promoter methylation Mean: 0.616; CGI-38 cg13067215 promoter methylation Mean: 0.274; CHD5 cg00282347 promoter methylation Mean: 0.682; CHMP2A cg14042128 promoter methylation Mean: 0.354; COL11A1 cg12884406 promoter methylation Mean: 0.331; COPS7B cg05422352 promoter methylation Mean: 0.338; CRSP7 cg24459023 promoter methylation Mean: 0.268; CSPG3 cg06952310 promoter methylation Mean: 0.350; CSTF2T cg06712026 promoter methylation Mean: 0.277; CTAGE1 cg02847216 promoter methylation Mean: 0.727; CUL3 cg09509863 promoter methylation Mean: 0.309; CYP4F12 cg25813714 promoter methylation Mean: 0.721; DCTD cg14892066 promoter methylation Mean: 0.171; DDEF2 cg22190705 promoter methylation Mean: 0.187; DEFB118 cg03014957 promoter methylation Mean: 0.548; DNASE2 cg07955356 promoter methylation Mean: 0.207; DPH1 cg11516377 promoter methylation Mean: 0.319; DYRK1B cg18851831 promoter methylation Mean: 0.820; EIF2B3 cg16604218 promoter methylation Mean: 0.360; ELSPBP1 cg19404979 promoter methylation Mean: 0.406; ENOSF1 cg16112050 promoter methylation Mean: 0.724; EPN3 cg24006361 promoter methylation Mean: 0.739; EREG cg19308222 promoter methylation Mean: 0.252; FAM111B cg13864937 promoter methylation Mean: 0.366; FLJ10726 cg14145762 promoter methylation Mean: 0.292; FLJ11200 cg09001953 promoter methylation Mean: 0.335; FLJ23514 cg16404106 promoter methylation Mean: 0.436; FLRT3 cg23127998 promoter methylation Mean: 0.249; FLT3LG cg01667384 promoter methylation Mean: 0.179; FXYD7 cg22392666 promoter methylation Mean: 0.720; G10 cg02798801 promoter methylation Mean: 0.349; GABRB2 cg16509658 promoter methylation Mean: 0.176; GALNT4 cg16606638 promoter methylation Mean: 0.245; GAS8 cg03634997 promoter methylation Mean: 0.814; GBX2 cg23095584 promoter methylation Mean: 0.268; GNAS cg27661264 promoter methylation Mean: 0.334; GRB10 cg26163537 promoter methylation Mean: 0.310; GUP1 cg24938727 promoter methylation Mean: 0.441; HACE1 cg23047681 promoter methylation Mean: 0.156; HGF cg06745740 promoter methylation Mean: 0.404; HNRNPG-T cg22062068 promoter methylation Mean: 0.650; HOXB4 cg25145670 promoter methylation Mean: 0.311; HRASLS cg08376864 promoter methylation Mean: 0.309; HYPK cg00480356 promoter methylation Mean: 0.630; ICAM1 cg08607082 promoter methylation Mean: 0.149; IFI16 cg07463059 promoter methylation Mean: 0.386; IFI44 cg07107453 promoter methylation Mean: 0.330; IFNA2 cg13235447 promoter methylation Mean: 0.480; IGF2AS cg20792294 promoter methylation Mean: 0.211; IGFBP5 cg19008649 promoter methylation Mean: 0.264; IGSF9 cg19111262 promoter methylation Mean: 0.576; IHH cg17178336 promoter methylation Mean: 0.504; IL2RG cg01361446 promoter methylation Mean: 0.834; IL18 cg11304234 promoter methylation Mean: 0.478; INPP5B cg10784030 promoter methylation Mean: 0.251; ITGB3BP cg18464559 promoter methylation Mean: 0.121; KA21 cg23776012 promoter methylation Mean: 0.410; KCNA3 cg03483626 promoter methylation Mean: 0.208; KCNAB3 cg14918082 promoter methylation Mean: 0.534; KCNB2 cg11754206 promoter methylation Mean: 0.377; KCNK10 cg17671157 promoter methylation Mean: 0.820; KLK7 cg19953406 promoter methylation Mean: 0.680; LAMB1 cg10064162 promoter methylation Mean: 0.295; LDHD cg24429836 promoter methylation Mean: 0.510; LIG4 cg08216792 promoter methylation Mean: 0.266; LYNX1 cg24046110 promoter methylation Mean: 0.288; MC3R cg19226099 promoter methylation Mean: 0.784; MGC26856 cg07684809 promoter methylation Mean: 0.260; MLNR cg02620013 promoter methylation Mean: 0.418; MPHOSPH6 cg16119274 promoter methylation Mean: 0.280; MSX1 cg03199651 promoter methylation Mean: 0.204; MYOD1 cg24322623 promoter methylation Mean: 0.650; NCKIPSD cg04244987 promoter methylation Mean: 0.242; NDP cg11614809 promoter methylation Mean: 0.579; NEFH cg16042149 promoter methylation Mean: 0.776; NEIL2 cg14329976 promoter methylation Mean: 0.226; NME5 cg13707560 promoter methylation Mean: 0.911; NME5 cg25507001 promoter methylation Mean: 0.671; NOC3L cg07270175 promoter methylation Mean: 0.464; NOX4 cg17063929 promoter methylation Mean: 0.575; NPAS1 cg09628601 promoter methylation Mean: 0.303; NRXN1 cg10917619 promoter methylation Mean: 0.594; OR1N1 cg14598387 promoter methylation Mean: 0.339; OR10J1 cg15700197 promoter methylation Mean: 0.444; PACS1 cg01663295 promoter methylation Mean: 0.329; PCDHB13 cg14592099 promoter methylation Mean: 0.423; PCDHB13 cg24435562 promoter methylation Mean: 0.273; PCDHGA12 cg11647681 promoter methylation Mean: 0.623; PCGF5 cg17001035 promoter methylation Mean: 0.664; PEPD cg06546607 promoter methylation Mean: 0.229; PEX5L cg02430692 promoter methylation Mean: 0.322; PI3 cg02442161 promoter methylation Mean: 0.625; PIGL cg05310071 promoter methylation Mean: 0.231; POU3F3 cg20291049 promoter methylation Mean: 0.268; POU4F2 cg24199834 promoter methylation Mean: 0.231; PTCH2 cg15329642 promoter methylation Mean: 0.576; PTPN5 cg17233601 promoter methylation Mean: 0.498; RASGEF1A cg07871503 promoter methylation Mean: 0.574; RBPSUHL cg21835643 promoter methylation Mean: 0.665; REM1 cg12153542 promoter methylation Mean: 0.456; REM1 cg26299767 promoter methylation Mean: 0.440; RLN3R1 cg12238343 promoter methylation Mean: 0.451; RPL39L cg07441272 promoter methylation Mean: 0.505; RRM2B cg07125123 promoter methylation Mean: 0.288; RYR1 cg05471297 promoter methylation Mean: 0.272; S100A12 cg02813121 promoter methylation Mean: 0.719; SCUBE2 cg01081263 promoter methylation Mean: 0.505; SCUBE2 cg19237879 promoter methylation Mean: 0.493; SEMA3E cg08274234 promoter methylation Mean: 0.207; SEMA6C cg01958916 promoter methylation Mean: 0.255; SEPN1 cg21187265 promoter methylation Mean: 0.381
